Source: ChEMBL document CHEMBL1909046, “DrugMatrix in vitro pharmacology data”

Experiments:
[1] = target: Beta-3 adrenergic receptor (Homo sapiens, UniProt P13945); experiment: DRUGMATRIX: Adrenergic beta3 radioligand binding (ligand: [125I] Cyanopindolol); type: cell membranes, HEK293, Membrane; settings: hek293; Not Active = under 50% inhibition at 10 µM
[2] = target: T1, Alpha-1A adrenergic receptor (Rattus norvegicus, UniProt P43140); experiment: DRUGMATRIX: Alpha-1A adrenergic receptor radioligand binding (ligand: prazosin); type: cell membranes, Wistar, Submaxillary gland, Membrane; settings: Not Active = under 50% inhibition at 10 µM
T1 sequence (P43140 whole entry): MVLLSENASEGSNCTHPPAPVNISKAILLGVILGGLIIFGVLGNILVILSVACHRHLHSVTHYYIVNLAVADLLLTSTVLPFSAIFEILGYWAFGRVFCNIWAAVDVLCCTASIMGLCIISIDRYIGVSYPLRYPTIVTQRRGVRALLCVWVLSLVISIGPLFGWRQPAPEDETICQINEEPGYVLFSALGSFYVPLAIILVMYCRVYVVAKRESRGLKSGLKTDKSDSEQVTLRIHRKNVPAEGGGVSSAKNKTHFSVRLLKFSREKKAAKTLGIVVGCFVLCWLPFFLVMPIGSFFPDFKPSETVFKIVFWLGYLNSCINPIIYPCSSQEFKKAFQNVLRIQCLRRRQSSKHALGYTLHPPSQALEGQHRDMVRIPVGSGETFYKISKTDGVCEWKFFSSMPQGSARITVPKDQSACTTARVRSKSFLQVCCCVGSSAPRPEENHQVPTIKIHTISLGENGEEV

[3] = target: C-C chemokine receptor type 5 (Homo sapiens, UniProt P51681); type: cell membranes, Membrane; settings: hek293; note: in other assays of this panel Not Active means under 50% inhibition at 10 µM
Sequence of C-C chemokine receptor type 5 (P51681 whole entry): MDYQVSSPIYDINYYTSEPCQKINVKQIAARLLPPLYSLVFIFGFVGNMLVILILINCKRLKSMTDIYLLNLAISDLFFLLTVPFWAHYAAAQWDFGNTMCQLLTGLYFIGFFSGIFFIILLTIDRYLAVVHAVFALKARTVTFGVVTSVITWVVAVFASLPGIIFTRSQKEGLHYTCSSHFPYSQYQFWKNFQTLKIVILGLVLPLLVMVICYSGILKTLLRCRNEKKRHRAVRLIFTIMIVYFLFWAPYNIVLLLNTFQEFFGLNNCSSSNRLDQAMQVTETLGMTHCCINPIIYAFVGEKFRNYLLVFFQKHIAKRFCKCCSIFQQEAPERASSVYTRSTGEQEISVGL

[4] = target: T2, Muscarinic acetylcholine receptor M5 (Homo sapiens, UniProt P08912); type: cell membranes, CHO-K1, Membrane; settings: cho-k1; note: in other assays of this panel Not Active means under 50% inhibition at 10 µM
T2 sequence (P08912 whole entry): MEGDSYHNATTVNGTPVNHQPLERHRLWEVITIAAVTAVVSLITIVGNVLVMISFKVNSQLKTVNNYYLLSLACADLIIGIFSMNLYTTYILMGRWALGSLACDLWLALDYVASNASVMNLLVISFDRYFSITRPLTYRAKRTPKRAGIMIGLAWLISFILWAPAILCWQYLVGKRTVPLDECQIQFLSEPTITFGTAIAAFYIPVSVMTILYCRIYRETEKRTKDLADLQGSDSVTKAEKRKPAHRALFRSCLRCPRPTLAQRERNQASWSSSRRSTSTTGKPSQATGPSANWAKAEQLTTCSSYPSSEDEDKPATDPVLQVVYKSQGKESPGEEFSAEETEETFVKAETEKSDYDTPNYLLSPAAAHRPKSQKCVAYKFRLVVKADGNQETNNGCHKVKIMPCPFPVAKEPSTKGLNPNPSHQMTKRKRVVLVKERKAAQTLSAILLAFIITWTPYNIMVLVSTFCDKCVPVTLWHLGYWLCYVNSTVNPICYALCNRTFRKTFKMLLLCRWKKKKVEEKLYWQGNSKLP

[5] = DRUGMATRIX: ATPase, Na+/K+ enzyme inhibition (substrate: ATP); type: tissue-based, Sus scrofa, Heart; settings: Not Active = under 50% inhibition at 10 µM
[6] = target: T3, 5-hydroxytryptamine receptor 1A (Rattus norvegicus, UniProt P19327); type: cell membranes, CHO-K1, Membrane; settings: cho-k1; note: in other assays of this panel Not Active means under 50% inhibition at 10 µM
T3 sequence (P19327 whole entry): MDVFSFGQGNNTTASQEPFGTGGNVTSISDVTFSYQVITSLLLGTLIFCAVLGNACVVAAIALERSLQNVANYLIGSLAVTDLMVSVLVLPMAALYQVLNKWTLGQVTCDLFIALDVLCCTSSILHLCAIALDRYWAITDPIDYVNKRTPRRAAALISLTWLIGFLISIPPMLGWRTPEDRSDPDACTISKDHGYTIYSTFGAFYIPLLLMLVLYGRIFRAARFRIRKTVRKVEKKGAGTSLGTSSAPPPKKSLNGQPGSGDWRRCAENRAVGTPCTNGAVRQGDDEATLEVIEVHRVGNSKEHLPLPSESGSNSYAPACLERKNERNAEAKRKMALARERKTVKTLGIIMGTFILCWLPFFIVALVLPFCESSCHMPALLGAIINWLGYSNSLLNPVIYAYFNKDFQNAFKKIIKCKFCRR

Sequence of Beta-3 adrenergic receptor (P13945 whole entry): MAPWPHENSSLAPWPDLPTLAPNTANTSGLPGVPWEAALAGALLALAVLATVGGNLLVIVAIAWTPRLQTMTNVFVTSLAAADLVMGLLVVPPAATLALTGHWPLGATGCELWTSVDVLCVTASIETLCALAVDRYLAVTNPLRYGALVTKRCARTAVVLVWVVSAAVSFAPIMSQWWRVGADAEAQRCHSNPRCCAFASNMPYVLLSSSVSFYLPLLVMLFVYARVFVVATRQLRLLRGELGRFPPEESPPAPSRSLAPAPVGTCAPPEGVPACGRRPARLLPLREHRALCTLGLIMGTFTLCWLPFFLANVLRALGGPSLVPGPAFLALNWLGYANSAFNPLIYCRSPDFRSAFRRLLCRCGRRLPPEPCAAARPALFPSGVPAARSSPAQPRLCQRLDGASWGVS

NC[C@H]1CC[C@H](C(=O)O)CC1 [TRANEXAMIC ACID]
Not Active: IC50 [1] | IC50 [2] | IC50 [3] | IC50 [4] | IC50 [5] | Ki [5] | IC50 [6]

CC1(C)O[C@@H]2C[C@H]3[C@@H]4CCC5=CC(=O)C=C[C@]5(C)[C@@]4(F)[C@@H](O)C[C@]3(C)[C@]2(C(=O)CO)O1 [TRIAMCINOLONE ACETONIDE]
Not Active: IC50 [1] | IC50 [2] | IC50 [3] | IC50 [4] | IC50 [5] | Ki [5] | IC50 [6]

NS(=O)(=O)c1cc2c(cc1Cl)NC(C(Cl)Cl)NS2(=O)=O (stereo not drawn) [TRICHLORMETHIAZIDE]
Not Active: IC50 [1] | IC50 [2] | IC50 [3] | IC50 [4] | IC50 [5] | Ki [5] | IC50 [6]

Cc1c(C)c2c(c(C)c1O)CCC(C)(COc1ccc(CC3SC(=O)NC3=O)cc1)O2 (stereo not drawn) [TROGLITAZONE]
Not Active: IC50 [1] | IC50 [2] | IC50 [3] | IC50 [4] | IC50 [5] | Ki [5] | IC50 [6]

N[C@@H]1[C@H]2CN(c3nc4c(cc3F)c(=O)c(C(=O)O)cn4-c3ccc(F)cc3F)C[C@@H]12 [TROVAFLOXACIN]
Not Active: IC50 [1] | IC50 [2] | IC50 [3] | IC50 [4] | IC50 [5] | Ki [5] | IC50 [6]

N#CC(C#N)=Cc1ccc(O)c(O)c1 [TYRPHOSTIN 23]
Not Active: IC50 [1] | IC50 [2] | IC50 [3] | IC50 [4] | IC50 [5] | Ki [5] | IC50 [6]

CC[C@]1(O)C[C@H]2CN(CCc3c([nH]c4ccccc34)[C@@](C(=O)OC)(c3cc4c(cc3OC)N(C=O)[C@H]3[C@@](O)(C(=O)OC)[C@H](OC(C)=O)[C@]5(CC)C=CCN6CC[C@]43[C@@H]65)C2)C1 [VINCRISTINE]
Not Active: IC50 [1] | IC50 [2] | IC50 [3] | IC50 [4] | IC50 [5] | Ki [5] | IC50 [6]

CCCOc1ccccc1-c1nc2nn[nH]c2c(=O)[nH]1 [ZAPRINAST]
Not Active: IC50 [1] | IC50 [2] | IC50 [3] | IC50 [4] | IC50 [5] | Ki [5] | IC50 [6]

SODIUM NITROPRUSSIDE
Not Active: IC50 [1] | Ki [1] | IC50 [2] | Ki [2] | IC50 [3] | Ki [3] | IC50 [4] | Ki [4] | IC50 [5] | Ki [5] | IC50 [6] | Ki [6]
